Patent US8735391B2, “Synthesis of functionalized octahydro-isoquinolin-1-one-8-carboxamides, octahydro-isoquinolin-1-one-8-carboxylic esters and analogs, and therapeutic methods” (University of Kansas, priority 2008, dated 2014)

Assays:
[1] = molecular target: KOR (Homo sapiens, UniProt P41145); test: Opioid secondary binding, KOR (Tables 4, 5, 8, 9); settings: Opioid secondary binding activity for Formula 10 analogs; read-out: KOR, Ki
[2] = molecular target: DOR (Homo sapiens, UniProt P41143); test: Opioid secondary binding, DOR (Table 4); settings: Opioid secondary binding activity for Formula 10 analogs
DOR, sequence (P41143 whole entry): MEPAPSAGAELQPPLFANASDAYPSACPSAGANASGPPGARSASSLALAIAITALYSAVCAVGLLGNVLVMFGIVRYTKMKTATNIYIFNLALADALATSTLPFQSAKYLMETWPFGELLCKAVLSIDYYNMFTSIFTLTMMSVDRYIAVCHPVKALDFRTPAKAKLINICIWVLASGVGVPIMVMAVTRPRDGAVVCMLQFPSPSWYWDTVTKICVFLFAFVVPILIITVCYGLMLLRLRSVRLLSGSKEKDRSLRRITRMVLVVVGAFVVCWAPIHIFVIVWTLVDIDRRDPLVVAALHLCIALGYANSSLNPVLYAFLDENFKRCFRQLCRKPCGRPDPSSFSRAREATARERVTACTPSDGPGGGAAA

KOR, sequence (P41145 whole entry): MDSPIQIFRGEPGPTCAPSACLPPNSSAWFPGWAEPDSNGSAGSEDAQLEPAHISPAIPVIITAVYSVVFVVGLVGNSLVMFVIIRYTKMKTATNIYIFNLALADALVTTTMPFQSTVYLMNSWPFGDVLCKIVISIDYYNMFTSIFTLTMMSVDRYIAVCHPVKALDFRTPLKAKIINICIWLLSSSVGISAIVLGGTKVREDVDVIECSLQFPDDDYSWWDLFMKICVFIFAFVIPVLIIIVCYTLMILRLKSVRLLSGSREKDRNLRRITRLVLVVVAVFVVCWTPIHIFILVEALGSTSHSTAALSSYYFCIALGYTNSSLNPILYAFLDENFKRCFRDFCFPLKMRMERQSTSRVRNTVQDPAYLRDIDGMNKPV

Row | Compound | Ki [1] | Ki [2]
1 | O=C(Nc1ccc(Cl)c(C(F)(F)F)c1)[C@@H]1CC=C[C@@H]2CCN(Cc3cccc(Br)c3)C(=O)[C@@H]21 (racemic) [compound 12170] | 1460 nM | 1720 nM
2 | COc1ccccc1CN1CC[C@H]2C=CC[C@@H](C(=O)Nc3ccc(C)c(C(F)(F)F)c3)[C@H]2C1=O (racemic) [compound 13481] | 1900 nM | 1340 nM
3 | CC(c1ccccc1)N1CCC2C=CCC(C(=O)Nc3ccccc3)C2C1=O (mixture of isomers) [compound 12164] | 4780 nM | 1380 nM
4 | CC(c1ccccc1)N1CCC2C=CCC(C(=O)NC3CCCCC3)C2C1=O (mixture of isomers) [compound 12163] | 5910 nM | 1160 nM
5 | Cc1ccc(NC(=O)[C@@H]2CC=C[C@@H]3CCN(Cc4ccccc4)C(=O)[C@@H]32)cc1C(F)(F)F (racemic) [compound 13475] | 1160 nM | 39 nM
6 | O=C(Nc1ccc(Br)c(C(F)(F)F)c1)[C@@H]1CC=C[C@@H]2CCN(Cc3ccccc3F)C(=O)[C@@H]21 (racemic) [compound 13478] | 299 nM | 22 nM
7 | O=C(Nc1ccc(Cl)cc1)[C@@H]1CC=C[C@@H]2CCN(Cc3ccccc3)C(=O)[C@@H]21 (racemic) [compound 12102] | 5030 nM | 165 nM
8 | O=C(NCc1cccc(Br)c1)[C@@H]1CC=C[C@@H]2CCN(Cc3ccccc3)C(=O)[C@@H]21 (racemic) [compound 11955] | 3280 nM | 438 nM
9 | O=C(Nc1ccc(I)cc1)[C@@H]1CC=C[C@@H]2CCN(Cc3ccccc3)C(=O)[C@@H]21 (racemic) [compound 11954] | 2820 nM | 194 nM
10 | O=C(Nc1ccc(Br)c(C(F)(F)F)c1)[C@@H]1CC=C[C@@H]2CCN(Cc3cccc(Br)c3)C(=O)[C@@H]21 (racemic) [compound 12171] | 694 nM | 503 nM
11 | O=C(NCc1ccc(Cl)c(Cl)c1)[C@@H]1CC=C[C@@H]2CCN(Cc3ccccc3)C(=O)[C@@H]21 (racemic) [compound 12148] | 2780 nM | 644 nM
12 | O=C(Nc1ccc([N+](=O)[O-])c(C(F)(F)F)c1)[C@@H]1CC=C[C@@H]2CCN(Cc3ccccc3)C(=O)[C@@H]21 (racemic) [compound 11932] | 200 nM | 41 nM
13 | Cc1ccc(NC(=O)[C@@H]2CC=C[C@@H]3CCN(Cc4ccccc4)C(=O)[C@@H]32)cc1Cl (racemic) [compound 11931] | 2570 nM | 61 nM
